Source: ChEMBL document CHEMBL1126161, “3,4-Dihydroquinolin-2(1H)-ones as combined inhibitors of thromboxane A2 synthase and cAMP phosphodiesterase” (J Med Chem, 1992)

Assays:
Rattus norvegicus [1] = assay: Antihypertensive activity in conscious spontaneously hypertensive rat (SHR), percent change in heart rate (beats/min) after 4 hr at 0.3 mg/kg peroral dose; format: functional; conditions: route oral
Rattus norvegicus [2] = assay: (§1) Antihypertensive activity in conscious spontaneously hypertensive rat (SHR), percent change in heart rate (beats/min) after 1 hr at 3 mg/kg peroral dose; format: functional; conditions: route oral
Homo sapiens [3] = species on record: Homo sapiens; assay: In vitro inhibition of ADP-induced aggregation of human PRP in the presence of pig aortal microsomes (PAM).; format: functional
Homo sapiens [4] = species on record: Homo sapiens; assay: Inhibition of [14C]arachidonic acid induced platelet aggregation at 50 uM (Control 6-keto-PGF1-alpha = 1.45+/-0.6); format: functional
Homo sapiens [5] = species on record: Homo sapiens; assay: Inhibition of [14C]arachidonic acid induced platelet aggregation at 500 uM (Control 6-keto-PGF1-alpha = 1.45+/-0.6); format: functional
Homo sapiens [6] = species on record: Homo sapiens; assay: Inhibition of [14C]arachidonic acid induced platelet aggregation at 50 uM (Control TXB2 = 14.9+/-2.5); format: functional
Homo sapiens [7] = species on record: Homo sapiens; assay: Inhibition of [14C]arachidonic acid induced platelet aggregation at 500 uM (Control TXB2 = 14.9+/-2.5); format: functional
Mus musculus [8] = assay: Protection against mortality in pulmonary thromboembolism model in mice at 10 mg/kg; format: functional
Mus musculus [9] = assay: Time course of protection against mortality in a pulmonary thromboembolism model in mice after -5 hr at 10 mg/kg; format: functional
Rattus norvegicus [10] = assay: Antihypertensive activity in conscious spontaneously hypertensive rat (SHR), percent change in heart rate (beats/min) after 8 hr at 1 mg/kg peroral dose; format: functional; conditions: route oral
Rattus norvegicus [11] = assay: Antihypertensive activity in conscious spontaneously hypertensive rat (SHR), percent change in heart rate (beats/min) after 12 hr at 3 mg/kg peroral dose; format: functional; conditions: route oral
Rattus norvegicus [12] = assay: as §1; format: functional; conditions: route oral; remark: listed apart in the source
Rattus norvegicus [13] = assay: Antihypertensive activity in conscious spontaneously hypertensive rat (SHR), percent change in heart rate (beats/min) after 4 hr at 3 mg/kg peroral dose; format: functional; conditions: route oral
Rattus norvegicus [14] = assay: Antihypertensive activity in conscious spontaneously hypertensive rat (SHR), percent change in heart rate (beats/min) after 12 hr at 10 mg/kg peroral dose; format: functional; conditions: route oral
Rattus norvegicus [15] = assay: Antihypertensive activity in conscious spontaneously hypertensive rat (SHR), percent change in heart rate (beats/min) after 1 hr at 0.3 mg/kg peroral dose; format: functional; conditions: route oral
Rattus norvegicus [16] = assay: Antihypertensive activity in conscious spontaneously hypertensive rat (SHR), percent change in heart rate (beats/min) after 2 hr at 0.3 mg/kg peroral dose; format: functional; conditions: route oral
Rattus norvegicus [17] = assay: Antihypertensive activity in conscious spontaneously hypertensive rat (SHR), percent change in heart rate (beats/min) after 1 hr at 10 mg/kg peroral dose; format: functional; conditions: route oral
Rattus norvegicus [18] = assay: Antihypertensive activity in conscious spontaneously hypertensive rat (SHR), percent change in heart rate (beats/min) after 8 hr at 10 mg/kg peroral dose; format: functional; conditions: route oral
Rattus norvegicus [19] = assay: Antihypertensive activity in conscious spontaneously hypertensive rat (SHR), percent change in heart rate (beats/min) after 1 hr at 1 mg/kg peroral dose; format: functional; conditions: route oral
Rattus norvegicus [20] = assay: Antihypertensive activity in conscious spontaneously hypertensive rat (SHR), percent change in heart rate (beats/min) after 4 hr at 1 mg/kg peroral dose; format: functional; conditions: route oral
Rattus norvegicus [21] = assay: Antihypertensive activity in conscious spontaneously hypertensive rat (SHR), percent change in Systolic blood pressure (SBP) at 0.3 mg/kg peroral dose after 1 hr; format: functional; conditions: route oral
Rattus norvegicus [22] = assay: Antihypertensive activity in conscious spontaneously hypertensive rat (SHR), percent change in Systolic blood pressure (SBP) at 10 mg/kg peroral dose after 1 hr; format: functional; conditions: route oral
Rattus norvegicus [23] = assay: Antihypertensive activity in conscious spontaneously hypertensive rat (SHR), percent change in Systolic blood pressure (SBP) at 10 mg/kg peroral dose; format: functional; conditions: route oral
Rattus norvegicus [24] = assay: Antihypertensive activity in conscious spontaneously hypertensive rat (SHR), percent change in Systolic blood pressure (SBP) at 1 mg/kg peroral dose after 1 hr; format: functional; conditions: route oral
Rattus norvegicus [25] = assay: Antihypertensive activity in conscious spontaneously hypertensive rat (SHR), percent change in Systolic blood pressure (SBP) at 1 mg/kg peroral dose after 2 hr; format: functional; conditions: route oral
Rattus norvegicus [26] = assay: Antihypertensive activity in conscious spontaneously hypertensive rat (SHR), percent change in Systolic blood pressure (SBP) at 1 mg/kg peroral dose after 8 hr; format: functional; conditions: route oral
Rattus norvegicus [27] = assay: Antihypertensive activity in conscious spontaneously hypertensive rat (SHR), percent change in Systolic blood pressure (SBP) at 3 mg/kg peroral dose after 8 hr; format: functional; conditions: route oral
Rattus norvegicus [28] = assay: Antihypertensive activity in conscious spontaneously hypertensive rat (SHR), percent change in Systolic blood pressure (SBP) at 1 mg/kg peroral dose after 12 hr; format: functional; conditions: route oral
Rattus norvegicus [29] = assay: Antihypertensive activity in conscious spontaneously hypertensive rat (SHR), percent change in Systolic blood pressure (SBP) at 3 mg/kg peroral dose after 12 hr; format: functional; conditions: route oral
Rattus norvegicus [30] = assay: Antihypertensive activity in conscious spontaneously hypertensive rat (SHR), percent change in Systolic blood pressure (SBP) at 0.3 mg/kg peroral dose after 4 hr; format: functional; conditions: route oral
Rattus norvegicus [31] = assay: Antihypertensive activity in conscious spontaneously hypertensive rat (SHR), percent change in Systolic blood pressure (SBP) at 0.3 mg/kg peroral dose after 8 hr; format: functional; conditions: route oral
[32] = biological target: T1, Thromboxane-A synthase (Homo sapiens) (UniProt P24557); assay: Effect of TXA2 synthase inhibitor (compound) on serum TXB2 level in rats at 50 mg/kg po, after 2 hr; format: functional, organism-based; design: dose 50 mg/kg; conditions: Rattus norvegicus, target entry is the homologue from another species
T1 sequence (whole entry): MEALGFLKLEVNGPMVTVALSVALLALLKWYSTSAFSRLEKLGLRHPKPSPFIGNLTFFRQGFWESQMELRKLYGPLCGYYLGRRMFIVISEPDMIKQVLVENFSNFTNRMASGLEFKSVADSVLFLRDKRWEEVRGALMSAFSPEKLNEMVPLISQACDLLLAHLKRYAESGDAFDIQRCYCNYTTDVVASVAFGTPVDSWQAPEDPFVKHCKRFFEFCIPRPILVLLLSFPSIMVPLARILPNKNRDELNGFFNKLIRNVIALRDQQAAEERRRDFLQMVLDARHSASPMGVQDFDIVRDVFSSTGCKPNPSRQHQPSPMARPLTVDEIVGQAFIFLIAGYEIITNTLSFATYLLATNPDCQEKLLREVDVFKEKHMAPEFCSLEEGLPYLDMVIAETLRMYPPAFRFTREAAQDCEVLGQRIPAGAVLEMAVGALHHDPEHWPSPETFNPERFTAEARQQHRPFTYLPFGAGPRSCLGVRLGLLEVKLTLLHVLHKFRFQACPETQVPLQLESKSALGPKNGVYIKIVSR

Thromboxane-A synthase = biological target: T2, Thromboxane-A synthase (Homo sapiens, UniProt P24557); assay: Compound was evaluated for the inhibition of human blood platelet thromboxane A2 synthase
T2 sequence (P24557 whole entry): T1 sequence (whole entry)

Rattus norvegicus [33] = assay: Antihypertensive activity in conscious spontaneously hypertensive rat (SHR), percent change in heart rate (beats/min) after 12 hr at 1 mg/kg peroral dose; format: functional; conditions: route oral
Homo sapiens [34] = species on record: Homo sapiens; assay: Inhibition of [14C]arachidonic acid induced TXB2 formation at 5 uM (Control TXB2 = 14.9+/-2.5)

O=C1CCc2cc(/C=C/n3ccnc3)ccc2N1
Change in heart rate (Rattus norvegicus [1]): -4%
Change in heart rate (Rattus norvegicus [2]): -34%
IC50 (Homo sapiens [3]): 1200 nM
6-keto-PGF1α level at 50 µM (Homo sapiens [4]): 11.5%
inhibition at 500 µM (Homo sapiens [5]): 21.1%
inhibition at 50 µM (Homo sapiens [6]): 8%
inhibition at 500 µM (Homo sapiens [7]): 4.3%
survival at 10 mg/kg (Mus musculus [8]): 90%
survival at 10 mg/kg (Mus musculus [9]): 60%
Change in heart rate (Rattus norvegicus [10]): -5%
Change in heart rate (Rattus norvegicus [11]): 8%
Change in heart rate (Rattus norvegicus [12]): 28%
Change in heart rate (Rattus norvegicus [13]): 20%
Change in heart rate (Rattus norvegicus [14]): 29%
Change in heart rate (Rattus norvegicus [15]): 3%
Change in heart rate (Rattus norvegicus [16]): -13%
Change in heart rate (Rattus norvegicus [17]): 22%
Change in heart rate (Rattus norvegicus [18]): 16%
Change in heart rate (Rattus norvegicus [19]): 17%
Change in heart rate (Rattus norvegicus [20]): 7%
Change in systolic BP (Rattus norvegicus [21]): -5%
Change in systolic BP (Rattus norvegicus [22]): -56%
Change in systolic BP (Rattus norvegicus [23]): -35%
Change in systolic BP (Rattus norvegicus [24]): -19%
Change in systolic BP (Rattus norvegicus [25]): -8%
Change in systolic BP (Rattus norvegicus [26]): -9%
Change in systolic BP (Rattus norvegicus [27]): -18%
Change in systolic BP (Rattus norvegicus [28]): -3%
Change in systolic BP (Rattus norvegicus [29]): -3%
Change in systolic BP (Rattus norvegicus [30]): -1%
Change in systolic BP (Rattus norvegicus [31]): -5%
inhibition [32]: 97%
IC50 (Thromboxane-A synthase): 1200 nM
Change in heart rate (Rattus norvegicus [33]): 1%
TXB2 level at 5 µM (Homo sapiens [34]): 12.3%
